From ChEMBL document CHEMBL4043124 (Bioorg Med Chem, 2017)

Experiment: Inhibition of Burkholderia pseudomallei beta-CA incubated for 15 mins by stopped-flow CO2 hydration assay

SMILES | Ki [mM]
F[P-](F)(F)(F)(F)F.[Na+] | > 100
OB(O)c1ccccc1 [PHENYLBORONIC ACID] | > 100
[N-]=[N+]=[N-] [SODIUM AZIDE] | > 100
O=S([O-])O.[Na+] [SODIUM BISULFITE] | > 100
N#CO [SODIUM CYANATE] | 6.8
[F-].[Na+] [SODIUM FLUORIDE] | > 100
[O-][Cl+3]([O-])([O-])O [SODIUM PERCHLORATE] | > 100
O=S(=O)(O)OOS(=O)(=O)O [SODIUM PERSULFATE] | > 100
O=BOB(O)OB(O)OB=O [SODIUM TETRABORATE] | > 100
F[B-](F)(F)F.[Na+] [SODIUM TETRAFLUOROBORATE] | > 100
